Experimental data from US20020091086A1, “Peptides that block viral infectivity and methods of use thereof” (priority 1999, published 2002).
Where two headings read alike, the source gives them in different places. Peptide text beside a SMILES is read from it.

Key:
[1] = tested on: HIV-1; conditions: 100 μM, HUT78 cells; for p24 / reduction (%): Experiment 6, Day 7 HIV-1; for HIV-1 infection, result in words: summary of Experiment 6
Procedure: In experiment 6 (Table 7 and FIG. 1), approximately 200,000 HUT78 cells were infected with HIV-1 at 25 TCID50 to test the inhibitory effect of GPG-NH2, RQG-NH2, KQG-NH2, ALG-NH2, GVG-NH2, VGG-NH2, ASG-NH2, SLG-NH2, and SPT-NH2. The HUT cells were resuspended in lml of RPMI 1640 medium supplemented with 10% (v/v) heat-inactivated fetal bovine serum (FBS, GIBCO), penicillin (100 u/ml), streptomycin (100 u/ml) and Polybrene (Sigma, 2 μg/ml) with or without the presence of the different small peptides (100 μM) mentioned above. Thereafter, the HIV-1 virus was added at 25 TCID50 in a volume of 20 μl. Cells were incubated with the virus at 37° C. for one hour and, subsequently, the cells were pelleted at 170×g for seven minutes. The cells were then washed three times in RPMI medium without peptides at room temperature by cell sedimentation at 170×g for seven minutes, as above. After the final wash, the cells were resuspended in RPMI culture medium containing the peptides in 24-well plate (Costar corporation) and were kept at 37° C. in 5% CO2 with humidity. Culture supernatants were collected when medium was changed at day 4, 7, and 11 post infection and viral p24 production was monitored by using an HIV-1 p24 ELISA kit (Abbott Laboratories, North Chicago, USA).

[2] = tested on: HIV-1 isolate p7300 (low PI); assay: resistant HIV-1 isolates in PBMC, p24 ELISA; type: cell-based; conditions: Rito 0.1 μM, 14 days post infection
[3] = tested on: HIV-1 SF-2 virus; assay: electron microscopy of HIV-1 particles from infected HUT78 cells; type: cell-based; conditions: 0.5μM; cells fixed day 14
Procedure: In this set of experiments, HUT78 cells were infected with HIV-1 SF-2 virus at 300TCID50 for 1 hr at 37° C. Subsequently, the infected cells were washed and pelleted 3 times, as described in Example 2. Thereafter, the cells were resuspended in RPMI culture medium supplemented with 10% FBS, antibiotics (100 u/ml) and polybrene (3.2 μg/ml). GPG-NH2 was then added into the cell cultures 3, 5 or 7 days post infection at concentration of 1 μM or 10 μM. A control sample was administered 0.5μM Ritonavir (a protease inhibitor).
The cells were cultured until day 14, at which point, the cells were fixed in 2.5% glutaraldehyde by conventional means. The fixed cells were then postfixed in 1% OSO4 and were dehydrated, embedded with epoxy resins, and the blocks were allowed to polymerize. Epon sections of virus infected cells were made approximately 60-80 nm thin in order to accommodate the width of the nucleocapsid. The sections were mounted to grids stained with 1.0% uranyl acetate and were analyzed in a Zeiss CEM 902 microscope at an accelerating voltage of 80 kV. The microscope was equipped with a spectrometer to improve image quality and a liquid nitrogen cooling trap was used to reduce beam damage. The grids having sections of control and GPG-NH2 incubated cells were examined in several blind studies.

[4] = tested on: HIV-1 isolate p7141 (high PI); assay: resistant HIV-1 isolates in PBMC, p24 ELISA; type: cell-based; conditions: Rito 0.1 μM, 14 days post infection

Compound | p24 [1] [pg/mL] | reduction (%) [1] [%] | HIV-1 infection, result in words [1] | other results
C[C@H](N)C(=O)N[C@@H](CO)C(=O)NCC(N)=O [ASG-NH2, alanyl-seryl-glycine amide] (H-Ala-Ser-Gly-NH2) | 15000 | 25 | – | –
CC(C)[C@H](NC(=O)CN)C(=O)NCC(N)=O [GVG-NH2, glycyl-valyl-glycine amide] (H-Gly-Val-Gly-NH2) | 15000 | 25 | – | –
NCCCC[C@H](N)C(=O)N[C@@H](CCC(N)=O)C(=O)NCC(N)=O [KQG-NH2, lysyl-glutaminyl-glycine amide] (H-Lys-Gln-Gly-NH2) | 154 | ~100 | inhibited and/or prevented HIV-1 infection | reduction (%) ([1]; listed as KQG—NH2): 99%
N=C(N)NCCC[C@H](N)C(=O)N[C@@H](CCC(N)=O)C(=O)NCC(N)=O [RQG-NH2, arginyl-glutaminyl-glycine amide] (H-Arg-Gln-Gly-NH2) | 113 | ~100 | inhibited and/or prevented HIV-1 infection | reduction (%) ([1]; listed as RQG—NH2): 99%
CC(C)c1nc(CN(C)C(=O)N[C@H](C(=O)N[C@@H](Cc2ccccc2)C[C@H](O)[C@H](Cc2ccccc2)NC(=O)OCc2cncs2)C(C)C)cs1 [Ritonavir, reference compound] | – | – | – | % reduction [2]: (56%); HIV-1 p24 [2]: 64000 pg/mL; viral particle structure, electron microscopy [3]: malformed structures that did not have a discemable nucleocapsid; % reduction [4]: (14%); HIV-1 p24 [4]: 98000 pg/mL
CC(C)C[C@H](NC(=O)[C@@H](N)CO)C(=O)NCC(N)=O [SLG-NH2, seryl-leucyl-glycine amide] (H-Ser-Leu-Gly-NH2) | 114 | ~100 | inhibited and/or prevented HIV-1 infection | reduction (%) ([1]; listed as SLG—NH2): 99%
C[C@@H](O)[C@H](NC(=O)[C@@H]1CCCN1C(=O)[C@@H](N)CO)C(N)=O [SPT-NH2, seryl-prolyl-threonine amide] (H-Ser-Pro-Thr-NH2) | 15000 | 25 | – | –
CC(C)[C@H](N)C(=O)NCC(=O)NCC(N)=O [VGG-NH2, valyl-glycyl-glycine amide] (H-Val-Gly-Gly-NH2) | 10000 | 50 | – | –
